Reference: patent US20040116523A1, “Use of c4-c10 acids for preventing gram-negative bacterial infections” (priority 2000, published 2004)

What was measured:
[1] = test system: Gram-positive or Gram-negative bacteria; details: in vitro, concentration not given; cited from earlier work
[2] = test system: S. typhi; details: 0.25 g/l; cited from earlier work
[3] = test system: Vibrio cholerae; details: 0.25 g/l; cited from earlier work
[4] = test system: Shigella sonnei; details: 0.25 g/l; cited from earlier work
[5] = test system: invF′-lacZ fusion (S. typhi strain Ty272); test: β-galactosidase activity of the invF′-lacZ fusion in favourable LB medium; assay type: cell-based
Protocol: (§1) The favourable LB medium (high osmolarity and concentration of Ca^2+ions) was defined as being the standard LB medium modified so as to have a final NaCl concentration of 300 mM and a final Ca concentration of 5 mM.
(§2) Each of the strains described above was cultured at 37° C. on agar or in TCS broth. The P-galactosidase activity was determined using 4-methyl-umbelliferyl-p-D-galactopyranoside sold by the company Sigma, according to the technique of Klarsfeld et al. (Mol. Mibrobiol., 1994, 13, 585-597). The results, expressed in P-galactosidase units (fluorescence per hour and per OD600), represent the mean of the values obtained in at least three independent experiments. The standard deviations were less than 10% of the values presented.
(§3) For this, the S. typhi strains Ty267, Ty272 and Ty277, which carry the iagA′-lacZ, invF′-lacZ and sipB′-lacZ fusions, respectively, (see Table I), were cultured in the favourable LB or unfavourable LB medium.
(§4) The action of these two compounds on the expression of the iagA′-lacZ, invF′-lacZ and sipB′-lacZ fusions was studied by measuring the β-galactosidase activity expressed by these fusions as a function of the time of culturing (samples removed every two hours).

[6] = test system: tviB′-lacZ fusion (S. typhi strain Ty266); test: β-galactosidase activity of the tviB′-lacZ fusion (specificity control); assay type: cell-based; details: 5 mM in favourable LB medium
Protocol: as §2
The tviB gene has been characterized in S. typhi, and it encodes a GDP-dehydrogenase involved in the biosynthesis of the Vi antigen, which is the capsular polysaccharide of the typhus bacillus (Waxin et al., Res. Microbiol., 1993, 144, 363-371).
The results are reported on FIG. 4, in which it is seen that samples were taken every two hours in order to measure the OD600 (corresponding to the open symbols) and in order to determine the β-galactosidase activity (corresponding to the solid symbols).

[7] = test system: iagA′-lacZcat fusion in S. typhi strain Ty267; test: "Biotype 100" plate screen for carbon-based substrates that repress the iagA′-lacZcat fusion (β-galactosidase activity); assay type: cell-based; details: "Biotype 100" cupule, amount of substrate not known; favourable LB medium; 36 hours at 37° C.; control cupule without substrate 11 250
Protocol: as §2
A “Biotype 100”® plate sold by the company BioMerieux is composed of 100 microcupules. Each micro-cupule contains a dehydrated carbon-based substrate, with the exception of the first cupule, which is a control without substrate (the amount of dehydrated substrate per cupule is not given by the manufacturer).
In the context of the present example, these plates were used to search for carbon-based compounds which would block the expression of the invasion genes in Salmonella.
For this, the S. typhi strain Ty267, which is a derivative of the parental strain Ty2 carrying the iagA′-lacZcat transcriptional fusion (Table I), was cultured in TCS broth for 18 hours at 37° C. with shaking (200 rpm).
This culture was then diluted 100-fold in favourable LB medium (0.6 ml of culture for 60 ml of favourable LB), and then this suspension was used immediately to seed the 100 cupules of a “Biotype 100”® plate, in a proportion of 450 μl of suspension per cupule.
After incubation for 36 hours in an incubator at 37° C., the activity of the iagA′-lacZcat fusion in the Ty267 strain was determined for the culture of each cupule.
By comparing the value of the P-galactosidase activity measured in a cupule containing a carbon-based substrate with that of the control cupule without substrate, it was possible to investigate whether a substrate had no effect on, activated or repressed the expression of the iagA′-lacZcat fusion.
The S. typhi strain Ty267 (iagA′-lacZ fusion), suspended in the favourable LB medium, was used to seed the “Biotype 100”® plates.
The β-galactosidase activity expressed by the iagA′-lacZ fusion was determined for the culture in each cupule. With respect to the β-galactosidase activity measured in the control cupule without substrate (11 250 β-galactosidase units), no substrate caused an increase in the expression of the iagA′-lacZ fusion.

[8] = test system: S. typhi strain Ty2; test: Mobility by the U-tube culturing technique; assay type: cell-based; details: U tube supplemented with 5 mM
Protocol: The mobility of each strain was studied using the U-tube culturing technique (Popoff and Le Minor, Guide pour la preparation des serum anti-Salmonella (Guide for preparing salmonella antisera], 1997). When necessary, the culture media were supplemented with chloramphenicol (Cm) at 15 μg/ml.

[9] = test system: sipB′-lacZ fusion (S. typhi strain Ty277); test: β-galactosidase activity of the sipB′-lacZ fusion in favourable LB medium; assay type: cell-based
Protocol: as §1, §2, §3, §4

[10] = test system: Salmonellae; test: Bactericidal or bacteriostatic effect on the Salmonellae at neutral pH; assay type: cell-based, Salmonella
[11] = test system: S. typhimurium C52; test: Splenic colonization of C57Bl/6 mice infected orally with S. typhimurium C52; assay type: in vivo
Protocol: The 5-6-week-old female C57Bl/6 mice used in the context of this experiment originated from the IFFA-CREDO breeding centre (LArbresle, France).
They were infected orally in the following way. The Salmonella strains were cultured in TCS broth for 18 hours at 37° C. with shaking (200 rpm). This culture was then adjusted to […] (in the stationary growth phase, 1 OD600 =1.5 ×10^9 bacteria/ml), and then the number of viable bacteria was controlled by counting on TCS agar.
On the day of infection (DO), the drinking-water bottles of the mice were replaced with bottles containing 100 ml of drinking water to which the required number of bacteria had been added.
After infection for 24 hours ([…]), the bottles containing the contaminated drinking water were replaced with bottles containing uncontaminated drinking water.
Seven days after infection (D+7), the spleens of the mice infected in this way were removed and homogenized separately in 1 ml of physiological saline containing 0.7% of NaCl.
The number of viable bacteria per spleen was determined by plating out dilutions of the homogenate, onto TCS agar.
The effect of the composition of the drinking water on the splenic colonization by Salmonella was estimated using the Student's t test.
The S. typhimurium strain C52 was used to infect C57Bl/6 mice orally.
On this figure, the number of viable bacteria is given as the mean (log10) of the values ± the standard deviation. […]

[12] = test system: iagA′-lacZ fusion (S. typhi strain Ty267); test: β-galactosidase activity of the iagA′-lacZ fusion in favourable LB medium; assay type: cell-based
[13] = test system: iagA′-lacZ fusion (S. typhi strain Ty267); test: as above; assay type: cell-based; details: 5 mM in favourable LB medium, 6 hours at 37° C.
Protocol: as §1
as §2, with “presented. […]” for “presented.”
The β-galactosidase activity of the iagA′-lacZ fusion was measured after incubation for 6 hours at 37° C. with shaking (200 rpm).
The S. typhi Ty267 strain (iagA′-lacZ fusion) was seeded into favourable LB medium and into favourable LB medium containing the fatty acid to be tested, in the form of its sodium salt, at the final concentration of 5 mM.

[14] = concentration greater than or equal to 2.5 mM, favourable LB medium

| SMILES | bacteriostatic or bactericidal effect on Gram-positive or Gram-negative bacteria [1] | bactericidal activity in vitro on S. typhi [2] | bactericidal activity in vitro on Vibrio cholerae [3] | bactericidal activity in vitro on Shigella sonnei [4] | decrease of the activity of the invF′-lacZ fusion with respect to favourable LB medium without the substance ([5]; 1 mM in favourable LB medium) | expression of the invF gene (invF′-lacZ fusion) [5, 14] | effect on the expression of the tviB′-lacZ fusion [6] | β-galactosidase activity expressed by the iagA′-lacZ fusion in the cupule [7] | mobility of the Ty2 strain [8] | decrease of the activity of the sipB′-lacZ fusion with respect to favourable LB medium without the substance ([9]; 1 mM in favourable LB medium) | expression of the sipB gene (sipB′-lacZ fusion) [9, 14] | bactericidal or bacteriostatic effect on the Salmonellae [10] | effect on the level of splenic colonization / protection (in words) ([11]; 50 mM (EDTA 10 mM) in drinking water, 5 × 10^7 bacteria orally) | Number of viable bacteria in the spleen (mean log10) (Table III) ([11]; 50 mM each (EDTA 10 mM) in drinking water pH 7.2-7.3 from two days before infection, 5 × 10^7 bacteria (125 LD50) orally, D+7, distilled water 7.9 ± 0.3) | decrease of the activity of the iagA′-lacZ fusion with respect to favourable LB medium without the substance ([12]; 1 mM in favourable LB medium) | expression of the iagA gene (iagA′-lacZ fusion) [12, 14] | β-galactosidase activity of the iagA′-lacZ fusion (Table II) ([13]; control 12134 ± 1811) | inhibition of the expression of the iagA′-lacZ fusion in S. typhi (in words) ([13]; sodium salt) |
| --- | --- | --- | --- | --- | --- | --- | --- | --- | --- | --- | --- | --- | --- | --- | --- | --- | --- | --- |
| CCCCCCCCCCCC(=O)O [lauric acid] | very effective | bactericidal activity | bactericidal activity | bactericidal activity |  |  |  |  |  |  |  |  |  |  |  |  |  |  |
| O=C([O-])c1ccccc1.[Na+] [sodium benzoate] |  |  |  |  | 50% | very strongly represses | no significant effect | 245 β-galactosidase units | same mobility | 50% | very strongly represses | none of these compounds has any significant bactericidal or bacteriostatic effect | no effect | 7.8 ± 0.8 log10 | 50% | very strongly represses | 190 ± 17 β-galactosidase units | inhibit |
